Experimental data as given in patent publication US20080140036A1, “Antimicrobial Composition” (priority 2004, published 2008).

Legend:
[1] = tested on: S. epidermidis NCTC 11047; test: ZOI of triclosan vapours (vapour phase); type: cell-based
[2] = tested on: EMRSA g96 139 515 phage group 15; test: ZOI of triclosan vapours (vapour phase)
MRSA 17 = test: ZOI of triclosan vapours (vapour phase)
[3] = tested on: EMRSA m97 271 036 phage group 11; test: ZOI of triclosan vapours (vapour phase)
[4] = tested on: EMRSA m97271052 phage group 4; test: ZOI of triclosan vapours (vapour phase)
MSSA (48) = test: ZOI of triclosan vapours (vapour phase); type: cell-based, S. aureus
[5] = tested on: EMRSA m972 710 40 phage group 9; test: ZOI of triclosan vapours (vapour phase)
MRSA 26 = test: ZOI of triclosan vapours (vapour phase)
MRSA 15 = test: ZOI of triclosan vapours (vapour phase)
MRSA 12 = test: ZOI of triclosan vapours (vapour phase)
MRSA 11 = test: ZOI of triclosan vapours (vapour phase)
[6] = tested on: all staphylococcal strains; test: Vapours of triclosan, all strains; type: cell-based, Staphylococcus; settings: vapour phase

## Oc1cc(Cl)ccc1Oc1ccc(Cl)cc1Cl [triclosan]
[1]; average
  ZOI Average: 50.5 mm
[1]; replicate 1
  ZOI 1: 50 mm
[1]; replicate 2
  ZOI 2: 51 mm
[2]; average
  ZOI Average: 47 mm
[2]; replicate 1
  ZOI 1: 47 mm
[2]; replicate 2
  ZOI 2: 47 mm
MRSA 17; average
  ZOI Average: 32 mm
MRSA 17; replicate 1
  ZOI 1: 31 mm
MRSA 17; replicate 2
  ZOI 2: 33 mm
[3]; average
  ZOI Average: 52 mm
[3]; replicate 1
  ZOI 1: 52 mm
[3]; replicate 2
  ZOI 2: 52 mm
[4]; average
  ZOI Average: 50 mm
[4]; replicate 1
  ZOI 1: 50 mm
[4]; replicate 2
  ZOI 2: 50 mm
MSSA (48); average
  ZOI Average: 48.5 mm
MSSA (48); replicate 1
  ZOI 1: 49 mm
MSSA (48); replicate 2
  ZOI 2: 48 mm
[5]; average
  ZOI Average: 55 mm
[5]; replicate 1
  ZOI 1: 55 mm
[5]; replicate 2
  ZOI 2: 55 mm
MRSA 26; average
  ZOI Average: 40 mm
MRSA 26; replicate 1
  ZOI 1: 40 mm
MRSA 26; replicate 2
  ZOI 2: 40 mm
MRSA 15; average
  ZOI Average: 50 mm
MRSA 15; replicate 1
  ZOI 1: 50 mm
MRSA 15; replicate 2
  ZOI 2: 50 mm
MRSA 12; average
  ZOI Average: 44.5 mm
MRSA 12; replicate 1
  ZOI 1: 45 mm
MRSA 12; replicate 2
  ZOI 2: 44 mm
MRSA 11; average
  ZOI Average: 43 mm
MRSA 11; replicate 1
  ZOI 1: 43 mm
MRSA 11; replicate 2
  ZOI 2: 43 mm
[6]
  effect of vapours on growth: effective at inhibiting growth of all staphylococcal strains
